One test concerns S. frugiperda. Description: Insecticidal efficacy (% control) and Colby synergy against S. frugiperda. The class given is in vivo, Spodoptera frugiperda. The following applies: 120 hours after treatment. The procedure: (§1) Different concentrations of each of the active ingredients are applied to different species of insects. The percent controls are determined sometime after treatment.
(§2) Colby's method, is used to determine if synergy exists for a combination of active ingredients. According to Colby, the expected action (E) of active ingredients A+B is:
(§3) [formula] • where E=expected efficacy, A and B=the efficacy of two active ingredients A and B at a given dose.
(§4) When the percentage of control observed (O) for the combination is greater than the expected (E) percentage, there is a synergistic effect. The synergism ratio (R) is calculated as the ratio between the […].
(§5) The insecticidal compounds A (Novaluron) and B (mix partner) are formulated as equivalent compositions to eliminate the effects of differing formulation inerts on biological activity. Efficacy of the insecticidal compositions is evaluated with reference to a scale of 0% to 100% in comparison with untreated control plots. 0 means no damage and 100 means complete destruction of the harmful pests.
(§6) The experiments were conducted by applying commercially available formulations of Novaluron and other mixture partners, alone or with their tank-mixed compositions with the same weight ratio. The compositions were diluted with water or some other suitable solvents to the stated concentration of the active compounds.
(§7) Each formulation with active ingredient is diluted with water or other suitable solvent(s) to the ppm (parts per million) level and biological efficacy trials on pests are conducted.

A further test concerns H. armigera. Description: Insecticidal efficacy (% control) and Colby synergy against H. armigera. The test is classed as in vivo, Helicoverpa armigera. To be noted: 120 hours after treatment. As for the experimental part:
as §1, §2, §3, §4, §5, §6, §7

Results on 6 molecules are retold here after patent US20260137084A1, “NOVALURON MIXTURES FOR EFFICIENT INSECTICIDAL CONTROLS” (ADAMA MAKHTESHIM LTD., priority 2022, published 2026).

As for Nicofluprole, the figures for the “Observed % control (O)” value in the test on S. frugiperda (Rate 0.5 ppm), in the test with S. frugiperda (Rate 1 ppm) and in the test with H. armigera (Rate 5 ppm) were 20%, 40% and 30%, respectively.
As for `O=C(NC(=O)c1c(F)cccc1F)Nc1ccc(OC(F)(F)C(F)OC(F)(F)F)c(Cl)c1` (single isomer, unassigned; (+)) [Novaluron, (+)-1-[3-chloro-4-(1,1,2-trifluoro-2-trifluoromethoxyethoxy)phenyl]-3-(2,6-difluorobenzoyl) urea], the “Observed % control (O)” value in the test with S. frugiperda (Rate 0.01 ppm) turned out to be 16%; with H. armigera (Rate 0.1 ppm), 20%; in the test on H. armigera (Rate 0.2 ppm) it was 20%.
`Cc1cccn2c(=O)c(-c3cc(Cl)cc(Cl)c3)c([O-])[n+](Cc3cnc(Cl)s3)c12` [Dicloromezotiaz]: the “Observed % control (O)” value in the test on S. frugiperda (Rate 1 ppm) is 0%; with S. frugiperda (Rate 2.5 ppm), 40%; in the test on S. frugiperda (Rate 5 ppm), 20%; with H. armigera (Rate 40 ppm), 40%.
As to `CCN1OCC(NC(=O)c2ccc(C3=NOC(c4cc(Cl)c(F)c(Cl)c4)(C(F)(F)F)C3)cc2C)C1=O` (centres unmarked) [Isocycloseram], the “Observed % control (O)” value in the test on S. frugiperda (Rate 5 ppm) came out at 20%; in the test with S. frugiperda (Rate 10 ppm) it was 20%; with H. armigera (Rate 10 ppm), 20%; with H. armigera (Rate 20 ppm), 50%.
In the case of `O=C(N=c1ccccn1Cc1ccc(Cl)nc1)C(F)(F)F` [Flupyrimin], the “Observed % control (O)” value in the test on S. frugiperda (Rate 10 ppm) amounted to 10%.
Turning to `CCN(C(=O)CCSCCC(F)(F)F)c1cn(-c2cccnc2)nc1Cl` [Tyclopyrazoflor], the “Observed % control (O)” value with S. frugiperda (Rate 5 ppm) and in the test with H. armigera (Rate 160 ppm) was 20% each time.
